In patent publication US10024845B2, “Methods for determining modulators of insect transient receptor potential V (TRPV) channel” (BASF SE, priority 2013, dated 2018):
“Also recorded” adds a separate entry of the source. Where two headings read alike, the source gives them in different places.

Tests used:
[1] = system: insect TRPV channel (Drosophila Nanchung and Inactive co-expressed); format: cell-based; conditions: for Response of cells (fluorescence units), Insect TRPV cells: single high dose 20 μM; for Ca2+ mobilization in cells co-expressing Nan and Iav (insect TRPV channel), in words: FLUO4 probe; for Dependence of the cell response on Ca2+ in the extracellular media: insect TRPV-expressing cells; for Inhibition of stimulation of the insect TRPV channel: cell-impermeable ion channel blocker
parental CHO-K1 cells = format: cell-based, hamster
mouse TRPV4 (mTRPV4) = mouse TRPV4 (mTRPV4) (Mus musculus, UniProt Q9EPK8); assay: Ca2+ mobilization (FLUO4, FLIPR) in CHO-K1 cells expressing mTRPV4; format: cell-based; conditions: for Ca2+ mobilization in cells expressing mTRPV4, in words: FLUO4 probe
mouse TRPV4 (mTRPV4), sequence (Q9EPK8 whole entry): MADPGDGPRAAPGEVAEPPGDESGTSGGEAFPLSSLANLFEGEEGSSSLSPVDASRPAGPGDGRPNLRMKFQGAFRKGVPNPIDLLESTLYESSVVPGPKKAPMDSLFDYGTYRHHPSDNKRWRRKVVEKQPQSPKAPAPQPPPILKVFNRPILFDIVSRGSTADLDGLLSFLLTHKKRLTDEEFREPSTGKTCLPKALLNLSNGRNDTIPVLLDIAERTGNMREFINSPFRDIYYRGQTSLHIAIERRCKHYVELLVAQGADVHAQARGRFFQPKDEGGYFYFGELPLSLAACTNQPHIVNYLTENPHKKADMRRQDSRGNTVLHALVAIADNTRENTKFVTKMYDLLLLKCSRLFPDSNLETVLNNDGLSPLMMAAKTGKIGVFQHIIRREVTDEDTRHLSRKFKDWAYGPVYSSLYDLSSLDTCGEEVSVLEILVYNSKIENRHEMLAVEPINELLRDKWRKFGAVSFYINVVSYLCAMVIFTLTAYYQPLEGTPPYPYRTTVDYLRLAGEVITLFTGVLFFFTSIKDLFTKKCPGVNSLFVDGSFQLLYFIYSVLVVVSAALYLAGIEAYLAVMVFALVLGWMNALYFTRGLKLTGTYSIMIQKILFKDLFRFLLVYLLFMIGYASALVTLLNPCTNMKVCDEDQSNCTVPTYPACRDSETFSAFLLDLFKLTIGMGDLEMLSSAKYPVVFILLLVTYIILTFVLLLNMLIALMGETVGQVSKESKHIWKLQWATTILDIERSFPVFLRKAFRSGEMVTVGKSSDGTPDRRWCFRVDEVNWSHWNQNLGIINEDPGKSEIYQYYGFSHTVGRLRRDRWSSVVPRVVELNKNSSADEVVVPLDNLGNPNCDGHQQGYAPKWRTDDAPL

[2] = CHO-K1 cells expressing insect TRPV
[3] = single high dose 20 μM, parental CHO-K1 cells
[4] = single high dose 20 μM, CHO-K1 cells expressing mTRPV4
[5] = listed as metabolite B of Pyrifluquinazon

Molecule | Response of cells (fluorescence units), Insect TRPV cells [1, 2] | Response of cells (fluorescence units), Parental CHO cells (parental CHO-K1 cells; [3]) | Response of cells (fluorescence units), mTRPV4 cells (mouse TRPV4 (mTRPV4); [4]) | further results
CC(=O)OCC[N+](C)(C)C [Acetylcholine] | 250 fluorescence units | 797 fluorescence units |  | 
Cc1ccc(/N=C/N(C)/C=N/c2ccc(C)cc2C)c(C)c1 [Amitraz] | 58 fluorescence units | 50 fluorescence units | 25 fluorescence units | 
Clc1cccc(Cl)c1N=C1NCCN1 [Clonidine] | 135 fluorescence units |  |  | Response of cells (fluorescence units), mTRPV4 cells (mouse TRPV4 (mTRPV4)): 62 fluorescence units; Response of cells (fluorescence units), Parental CHO cells (parental CHO-K1 cells): 136 fluorescence units
ClC1=C(Cl)[C@]2(Cl)[C@@H]3[C@@H]4C[C@@H]([C@H]5O[C@@H]45)[C@@H]3[C@@]1(Cl)C2(Cl)Cl [Dieldrin] | 78 fluorescence units | 73 fluorescence units | 52 fluorescence units | 
CN/C(=N/CC1CCOC1)N[N+](=O)[O-] (centres unmarked) [Dinotefuran] | 48 fluorescence units |  | 23 fluorescence units | Response of cells (fluorescence units), Parental CHO cells (parental CHO-K1 cells): 23 fluorescence units
Clc1ccc(C2CC3CCC2N3)cn1 (centres unmarked) [Epibatidine] |  | 49 fluorescence units | 63 fluorescence units | Response of cells (fluorescence units), Insect TRPV cells ([1]; […]): 70 fluorescence units
CC[S+]([O-])c1c(C#N)nn(-c2c(Cl)cc(C(F)(F)F)cc2Cl)c1N (centres unmarked) [Ethiprole] | 154 fluorescence units | 357 fluorescence units | 113 fluorescence units | 
N#Cc1nn(-c2c(Cl)cc(C(F)(F)F)cc2Cl)c(N)c1[S+]([O-])C(F)(F)F (centres unmarked) [Fipronil] | 133 fluorescence units | 240 fluorescence units | 60 fluorescence units | 
NCCCC(=O)O [GABA] | 68 fluorescence units | 100 fluorescence units | 43 fluorescence units | 
CC(C)C[C@H](NC(=O)c1cc2ccccc2s1)C(=O)N1CCN(C(=O)[C@H](CO)NS(=O)(=O)c2ccc(Cl)cc2Cl)CC1 [GSK1016790A, N-((1 S)-1-{[4-((2 S)-2-{[(2,4-dichlorophenyl)sulfonyl]amino}-3-hydroxypropanoyl)-1-piperazinyl]carbonyl}-3-methylbutyl)-1-benzothiophene-2-carboxamide] | 53 fluorescence units | 71 fluorescence units | 2017 fluorescence units | Ca2+ mobilization in cells expressing mTRPV4, in words (mouse TRPV4 (mTRPV4)): induced strong Ca^2+ mobilization response; also recorded: strong activation
O=[N+]([O-])NC1=NCCN1Cc1ccc(Cl)nc1 [Imidacloprid] | 42 fluorescence units | 69 fluorescence units | 16 fluorescence units | 
Cl[C@H]1[C@H](Cl)[C@@H](Cl)[C@@H](Cl)[C@H](Cl)[C@H]1Cl [Lindane] | 35 fluorescence units | 19 fluorescence units | 12 fluorescence units | 
CN1CCN2c3ccccc3Cc3ccccc3C2C1 (centres unmarked) [Miansenn] |  | 110 fluorescence units | 30 fluorescence units | Response of cells (fluorescence units), Insect TRPV cells ([1]; […]): 86 fluorescence units
c1ccc2c(CC3=NCCN3)cccc2c1 [Naphazoline] | 31 fluorescence units | 50 fluorescence units | 11 fluorescence units | 
CN1CCCC1c1cccnc1 (centres unmarked) [Nicotine] | 81 fluorescence units |  |  | Response of cells (fluorescence units), mTRPV4 cells (mouse TRPV4 (mTRPV4)): 8 fluorescence units; Response of cells (fluorescence units), Parental CHO cells (parental CHO-K1 cells): 65 fluorescence units
NCC(O)c1ccc(O)cc1 (centres unmarked) [Octopamine] | 66 fluorescence units | 45 fluorescence units | 20 fluorescence units | 
O=C1Nc2ccc(C(F)(C(F)(F)F)C(F)(F)F)cc2CN1NCc1cccnc1 [Pyrifluquinazon metabolite B] | 538 fluorescence units | 40 fluorescence units | 346 fluorescence units | Potency relative to the parental compound pyrifluquinazon [1]: about 100 fold; Ca2+ mobilization in cells co-expressing Nan and Iav (insect TRPV channel), in words [1]: activation of insect TRPV channel; Ca2+ mobilization in cells co-expressing Nan and Iav (insect TRPV channel), in words [1, 5]: triggered Ca^2+ mobilization; Dependence of the cell response on Ca2+ in the extracellular media [1]: requires presence of Ca^2+ in the extracellular media; Potency against mouse TRPV4 relative to Drosophila TRPV channel (mouse TRPV4 (mTRPV4)): ~100 fold; Ca2+ mobilization in cells expressing mTRPV4, in words (mouse TRPV4 (mTRPV4)): weak activation; Ca2+ mobilization in cells expressing mTRPV4, in words (mouse TRPV4 (mTRPV4); [5]): did trigger Ca^2+ mobilization
N.N.N.N.N.N.N.N.N.N.N.N.N.N.[Cl-].[Cl-].[Cl-].[Cl-].[Cl-].[Cl-].[O-2].[O-2].[Ru+3].[Ru+3].[Ru+4] [Ruthenium red] |  |  |  | Inhibition of stimulation of the insect TRPV channel [1]: inhibited; Inhibition of stimulation of the insect TRPV channel ([1]; listed as ruthenium red): inhibition of the response
CNC(=O)c1cc(Cl)cc(C)c1NC(=O)c1cc(Br)nn1-c1ncccc1Cl [Rynaxapyr] | 43 fluorescence units | 93 fluorescence units | 74 fluorescence units | 
N#C/N=C1\SCCN1Cc1ccc(Cl)nc1 [Thiacloprid] | 36 fluorescence units | 29 fluorescence units | 16 fluorescence units | 
CC1=NNC(=O)N(/N=C/c2cccnc2)C1 [pymetrozine] |  |  |  | Ca2+ mobilization in cells co-expressing Nan and Iav (insect TRPV channel), in words [1]: triggered Ca^2+ mobilization; also recorded: activation of insect TRPV channel; Ca2+ mobilization in cells co-expressing Nan and Iav (insect TRPV channel), in words ([1]; listed as Pymetrozine): triggered Ca^2+ mobilization; Ca2+ mobilization in cells expressing mTRPV4, in words (mouse TRPV4 (mTRPV4); listed as Pymetrozine): had no effect
CC(=O)N1C(=O)N(NCc2cccnc2)Cc2cc(C(F)(C(F)(F)F)C(F)(F)F)ccc21 [pyrifluquinazon] |  |  |  | Ca2+ mobilization in cells co-expressing Nan and Iav (insect TRPV channel), in words [1]: triggered Ca^2+ mobilization; Dependence of the cell response on Ca2+ in the extracellular media [1]: absolutely dependent on the presence of Ca^2+ in the extracellular media
Abamectin | 49 fluorescence units | 52 fluorescence units | 30 fluorescence units | 
Ryanodine |  | 75 fluorescence units | 19 fluorescence units | Response of cells (fluorescence units), Insect TRPV cells ([1]; […]): 53 fluorescence units
